Series [1] has as its system foxtail, giant (giant foxtail, Setaria faberi). Put plainly: Test A preemergence, giant foxtail. The conditions noted are these: pre-emergence, 240 h, 0 to 100 scale, 10 days, read-out: Plant response rating, Foxtail, Giant; for pest or weed control at 31 g/ha: 31 g ai/ha; for pest or weed control at 125 g/ha: 125 g ai/ha. In kind it is in vivo. From the text: (§1) Seeds of plant species selected from barnyardgrass (Echinochloa crus-galli), blackgrass (Alopecurus myosuroides), corn (Zea mays), foxtail, giant (giant foxtail, Setaria faberi), goosegrass (Eleusine indica), kochia (Bassia scoparia), oat, wild (wild oat, Avena fatua), pigweed, palmer (palmer amaranth, Amaranthus palmeri), pigweed, redroot (redroot pigweed, Amaranthus retroflexus), ragweed (common ragweed, Ambrosia artemisiifolia), ryegrass, Italian (Italian ryegrass, Lolium multiflorum), soybean (Glycine max), and wheat (Triticum aestivum) were planted into a blend of loam soil and sand and treated preemergence with a directed soil spray using test chemicals formulated in a non-phytotoxic solvent mixture which included a surfactant.
(§2) At the same time, plants selected from these crop and weed species and also galium (catchweed bedstraw, Galium aparine) and horseweed (Erigeron canadensis) were planted in pots containing the same blend of loam soil and sand and treated with postemergence applications of test chemicals formulated in the same manner. Plants ranged in height from 2 to 10 cm and were in the one- to two-leaf stage for the postemergence treatment. Treated plants and untreated controls were maintained in a greenhouse for 10 days, after which time all treated plants were compared to untreated controls and visually evaluated for injury. Plant response ratings, summarized in Table A, are based on a 0 to 100 scale where 0 is no effect and 100 is complete control. A dash (-) response means no test result.

Series [2] concerns soybean (Glycine max). In words: Test A postemergence, soybean. In kind it is in vivo. The conditions noted are these: 0 to 100 scale, 10 days.
From the text: as §1, §2

Series [3] concerns kochia (Bassia scoparia). Put plainly: Test A preemergence, kochia. In kind it is in vivo. The conditions noted are these: pre-emergence, 240 h, 0 to 100 scale, 10 days, read-out: Plant response rating, Kochia; for pest or weed control at 31 g/ha: 31 g ai/ha; for pest or weed control at 125 g/ha: 125 g ai/ha.
From the text: as §1, §2

Series [4] relates to blackgrass (Alopecurus myosuroides). Put plainly: Test A preemergence, blackgrass. In kind it is in vivo. The conditions noted are these: 0 to 100 scale, 10 days.
From the text: as §1, §2

Series [5] deals with wheat (Triticum aestivum). In words: Test A preemergence, wheat. The conditions noted are these: 0 to 100 scale, 10 days. The format is in vivo.
From the text: as §1, §2

The subject of series [6] is ragweed (common ragweed, Ambrosia artemisiifolia). Put plainly: Test A preemergence, ragweed. In kind it is in vivo. The conditions noted are these: pre-emergence, 240 h, 0 to 100 scale, 10 days, read-out: Plant response rating, Ragweed; for pest or weed control at 31 g/ha: 31 g ai/ha; for pest or weed control at 125 g/ha: 125 g ai/ha.
From the text: as §1, §2

The subject of series [7] is corn (Zea mays). Put plainly: Test A postemergence, corn. The conditions noted are these: post-emergence, 240 h, 0 to 100 scale, 10 days; for Corn plant response rating (crop injury, 0 = no effect, 100 = complete kill) at 31 g/ha: 31 g ai/ha; for Corn plant response rating (crop injury, 0 = no effect, 100 = complete kill) at 125 g/ha: 125 g ai/ha. The format is in vivo.
From the text: as §1, §2

The test system of series [8] is goosegrass (Eleusine indica). In words: Test A postemergence, goosegrass. In kind it is in vivo. The conditions noted are these: 0 to 100 scale, 10 days.
From the text: as §1, §2

The subject of series [9] is blackgrass (Alopecurus myosuroides). In words: Test A postemergence, blackgrass. In kind it is in vivo. The conditions noted are these: 0 to 100 scale, 10 days.
From the text: as §1, §2

In general, melting point refers to the temperature of the solid-liquid transition.

As for `Cc1cc(C)c(N2CCC(OC3CC3)C2=O)cc1NS(=O)(=O)C(F)(F)F` (stereo not drawn) [Compound 3, N-[5-[3-(cyclopropyloxy)-2-oxo-1-pyrrolidinyl]-2,4-dimethylphenyl]-1,1,1-trifluoromethanesulfonamide], the melting point lay in the range of 171 to 174 °C. In series [1], the pest or weed control at 31 g/ha is 100% and the pest or weed control at 125 g/ha was 100%. Further, the “Plant response rating, Soybean” value in series [2] (31 g ai/ha) is given as 60. The “Plant response rating, Soybean” value in [2] (125 g ai/ha) was found to be 70. Further, in series [3], the pest or weed control at 31 g/ha turned out to be 100% and the pest or weed control at 125 g/ha amounted to 100%. For the same molecule, the “Plant response rating, Blackgrass” value in [4] (31 g ai/ha) is 80. Further, in series [4] (125 g ai/ha), the “Plant response rating, Blackgrass” value is recorded as 100. In addition, in [5] (31 g ai/ha), the “Plant response rating, Wheat” value amounted to 100. For the same molecule, the “Plant response rating, Wheat” value in series [5] (125 g ai/ha) is 100. Further, in [6], the pest or weed control at 31 g/ha worked out at 90% and the pest or weed control at 125 g/ha came out at 100%. Besides, in series [7], the Corn plant response rating (crop injury, 0 = no effect, 100 = complete kill) at 31 g/ha came to 90% and the Corn plant response rating (crop injury, 0 = no effect, 100 = complete kill) at 125 g/ha was determined as 90%. The “Plant response rating, Goosegrass” value in [8] (31 g ai/ha) was 80. In series [8] (125 g ai/ha), the “Plant response rating, Goosegrass” value stood at 90. The “Plant response rating, Blackgrass” value in series [9] (31 g ai/ha) was 40. Further, the “Plant response rating, Blackgrass” value in series [9] (125 g ai/ha) is reported as 70.

For `Cc1cc(C)c(N2CCC(OC3CCC3)C2=O)cc1NS(=O)(=O)C(F)(F)F` (stereo not drawn) [Compound 4, N-[5-[3-(cyclobutyloxy)-2-oxo-1-pyrrolidinyl]-2,4-dimethylphenyl]-1,1,1-trifluoromethanesulfonamide], the melting point was 166 to 169 °C. In series [1], the pest or weed control at 31 g/ha was found to be 100% and the pest or weed control at 125 g/ha was 100%. Moreover, the “Plant response rating, Soybean” value in [2] (31 g ai/ha) worked out at 50. In [2] (125 g ai/ha), the “Plant response rating, Soybean” value was found to be 70. In addition, in [3], the pest or weed control at 31 g/ha came out at 70% and the pest or weed control at 125 g/ha was 100%. The “Plant response rating, Blackgrass” value in [4] (31 g ai/ha) is on record as 20. Further, the “Plant response rating, Blackgrass” value in series [4] (125 g ai/ha) was found to be 90. Besides, the “Plant response rating, Wheat” value in [5] (31 g ai/ha) amounted to 70. For the same molecule, the “Plant response rating, Wheat” value in [5] (125 g ai/ha) is recorded as 100. In addition, in [6], the pest or weed control at 31 g/ha turned out to be 90% and the pest or weed control at 125 g/ha is 100%. Also, in series [7], the Corn plant response rating (crop injury, 0 = no effect, 100 = complete kill) at 31 g/ha is 90% and the Corn plant response rating (crop injury, 0 = no effect, 100 = complete kill) at 125 g/ha was 0%. For the same molecule, the “Plant response rating, Goosegrass” value in series [8] (31 g ai/ha) was found to be 70. Besides, in series [8] (125 g ai/ha), the “Plant response rating, Goosegrass” value turned out to be 90.

These data come from patent US20240158348A1, “HERBICIDAL CYCLIC AMIDES N-SUBSTITUTED WITH A HALOALKYLSULFONYLANILIDE GROUP” (FMC Corporation, priority 2021, published 2024).
